In one experiment the test system is tomato hornworm larvae. Description: Prevention of cuticular blackening in tomato hornworm larvae injected with juvenile hormone esterase. It is filed as in vivo, Manduca sexta. Conditions: third stadium larvae injected with 9 μg (148 pmoles) juvenile hormone esterase, then 0.17 nmoles epofenonane. On the procedure: Tomato hornworm larvae, obtained from Zoecon Corp., were injected with the affinity purified juvenile hormone esterase obtained from Example I. Injections were performed at 10 hours after lights on the day before ecdysis to the third stadium. Larvae were reared on a 14L"10D photoperiod. Injections were made in 1.5 μl of buffer cocktail containing 3-10 μg (49-164 pmoles) of esterase. Total protein in each injection was kept constant at 10 μg with […] bovine serum albumen (BSA). Control injections in buffer contained 10 μg BSA or 12 μg larval blood protein from which the esterase was removed.
FIG. 2 illustrates third stadium tomato hornworm larvae after injection with 9 μg (148 pmoles) of juvenile hormone esterase as in FIG. 1, but then treated with 17 nmoles epofenonane (left), 0.17 nmoles epofenonane (middle) or no epofenonane (right). […] Epofenonane is a juvenile hormone chemical mimic, although it is not a substrate for juvenile hormone esterase. Thus, FIG. 2 illustrates that even a dose of juvenile hormone which is too low completely to prevent an anti-juvenile hormone effect can still effect a localized response.

In experiment [1] the target is T1, juvenile hormone hemolymph carrier protein (H. virescens) (Heliothis virescens, UniProt Q25175).
T1 construct: preparation not described in the excerpts
T1 sequence (Q25175 19-242): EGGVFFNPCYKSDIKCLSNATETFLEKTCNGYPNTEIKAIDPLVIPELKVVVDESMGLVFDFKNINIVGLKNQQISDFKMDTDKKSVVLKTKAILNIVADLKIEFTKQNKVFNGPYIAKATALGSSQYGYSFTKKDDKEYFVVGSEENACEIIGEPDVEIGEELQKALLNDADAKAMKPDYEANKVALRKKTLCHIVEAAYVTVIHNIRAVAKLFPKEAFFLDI
Description: Binding of juvenile hormone by the hemolymph carrier protein. Conditions: juvenile hormone bound by carrier protein. From the text:
(§1) Juvenile hormone esterase is biochemically interesting in that it is an extraordinarily efficient enzyme. The very low Km ^31 6×10^-8 M of juvenile hormone esterase, its high kcat, and the low molarity of the enzyme even in the last larval stadium indicate that production of even small amounts of juvenile hormone esterase (<0.1% of total protein) should overpower the ability of the corpora allata to make juvenile hormone. This destruction of the juvenile hormone will be […] by the juvenile hormone hemolymph carrier protein.

The target in experiment [2] is T2, juvenile hormone esterase (Heliothis virescens, UniProt P12992).
T2 sequence (P12992 20-564): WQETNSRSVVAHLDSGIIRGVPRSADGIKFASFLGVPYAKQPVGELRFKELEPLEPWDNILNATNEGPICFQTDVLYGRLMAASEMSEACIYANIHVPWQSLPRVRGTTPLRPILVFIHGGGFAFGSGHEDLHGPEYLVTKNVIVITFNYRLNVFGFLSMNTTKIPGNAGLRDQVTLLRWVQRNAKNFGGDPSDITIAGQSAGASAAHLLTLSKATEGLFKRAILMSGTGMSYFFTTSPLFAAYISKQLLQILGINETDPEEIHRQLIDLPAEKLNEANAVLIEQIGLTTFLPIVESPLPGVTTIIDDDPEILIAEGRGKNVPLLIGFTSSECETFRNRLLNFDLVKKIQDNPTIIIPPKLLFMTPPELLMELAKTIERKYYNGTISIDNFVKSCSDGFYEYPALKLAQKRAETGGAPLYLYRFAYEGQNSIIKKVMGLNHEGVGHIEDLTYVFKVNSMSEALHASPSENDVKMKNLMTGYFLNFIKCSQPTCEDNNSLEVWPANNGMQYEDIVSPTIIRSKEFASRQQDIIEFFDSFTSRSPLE
Description: Juvenile hormone esterase kinetics for juvenile hormone. It is filed as biochemical. Conditions: substrate juvenile hormone.
From the text: as §1

pKd: −log10 of the molar value.

`CCc1ccc(OCCC(CC)CCC2OC2(C)CC)cc1` (stereo not drawn) [epofenonane]: the “prevention of blackening of the cuticle” value with tomato hornworm larvae is “not sufficient to prevent completely the blackening of the cuticle”.

juvenile hormone showed a pKd in experiment [1] of 6.21. Also, the Michaelis-Menten constant (Km) in experiment [2] stood at 0.06 µM.

The term pKd denotes −log10 of the Kd, conventionally taken in molar units. Read a high pKd as a small Kd. In general, Km refers to the substrate concentration at which the rate is half of its maximum.

The record behind these values is patent US5098706A, “Juvenile hormone esterase for insect control” (The Regents of the University of California, priority 1988, dated 1992).
